Test results published in patent US6759520B1, “Chimeric analgesic peptides” (priority 1999, dated 2004).
pKd: −log10 of the molar value.

Key:
Sprague Dawley rats [1] = experiment: Tail flick test after intrathecal administration; assay type: in vivo, rat; conditions: for change in analgesia, antagonist alone: control experiment, p>0.05
Protocol: (§1) ESP7 was tested clinically in rats to determine analgesic effect and tolerance. The classical tail flick test was used to measure pain response and thermal pain was mimicked using a heat source. This system was controlled using standard opioids. The drug was administered with cyclodextran to increase solubility of the peptide in an aqueous solution.
Adult male Sprague Dawley rats (200-250 g) were implanted with chronic indwelling intrathecal catheters using a modified protocol of Yaksh and Rudy, Physiol. Behav., 17: 1031-1036 (1976). […] The rats were anesthetized throughout the surgery with 5.0% isoflurane. The catheter was inserted through the alanto-occipital membrane and into the intrathecal space using a guide wire. Sutures were used to secure the placement of the catheter. The rats were allowed to recover from surgery for 3-4 days and any rats with neurological impairment were not used for analgesic measurements. Rats were housed separately in a 12 hr light-dark cycle with free access to food and water. During their recovery from surgery, rats were habituated to the laboratory environment and analgesic testing apparatus.
For measurement of the thermal anti-nociceptive properties of the peptides of interest, the tail flick test was employed. Rats were first habituated to the tail flick chamber. During testing, the rats were placed in the chamber and a light source, which generated heat, was directed at their tail. The latency to remove the tail was recorded. The baseline latency was approximately 3.5 sec and the cutoff latency was 10 sec to avoid tissue damage. Three measurements were made at each pre- and post-treatment time point and the results were averaged. Responses were expressed as % maximum possible effect: […]
Rats were given doses of 1.0 μg (FIG. 5), 0.2 μg (FIG. 6), and 0.05 μg (FIG. 7) of ESP7. The desired concentration of the compound (in 10 μl) was injected into the catheter followed by 10 μl saline flush to fill the dead volume. ESP7 was combined with two molecules of cyclodextrin (ESP7+2CD) to increase solubility. […]

rats = experiment: Tail flick test after intraperitoneal administration; assay type: in vivo, rat; conditions: 1 mg intraperitoneal
Protocol: as §1
ESP7 was administered intraperitoneally in order to assess the effectiveness of ESP7 systemically. The tail flick assay was used to measure analgesia as described above in Example 2.1. Briefly, the rats were first habituated to the tail flick chamber. During testing, the rats were placed in the chamber and a light source, which generated heat, was directed at their tail. The latency to remove the tail was recorded. The baseline latency was approximately 3.5 sec and the cutoff latency was 10 sec to avoid tissue damage. Three measurements were made at each pre- and post-treatment time point and the results were averaged. Responses were expressed as % maximum possible effect (MPE): [formula]

μ receptor = target: T1, μ receptor (Rattus norvegicus, UniProt P33535); experiment: μ receptor binding assay, [3H]DAMGO competition, crude rat brain plasma membranes
T1 construct: frozen rat brains (−80° C.) were homogenized in 40 volumes of standard Tris buffer; from tissue; host or cells: rat brain (crude plasma membranes)
Protocol: For binding assays to opioid receptors, frozen rat brains (−80° C.) were homogenized in 40 volumes of standard Tris buffer (50 mM Tris HCl (pH 7.4), 0.2 mg/ml BSA, 2.5 mM EDTA, 40 μg/ml bacitracin, 30 μg/ml bestatin and 5 mM MgCl2) and centrifuged at 15,000×g for 20 minutes. 100 mM NaCl was added to the buffer, in order to remove endogenous ligands, and the centrifugation was repeated. After a wash with standard buffer, the membrane preparation was finally resuspended in 10 volumes of incubation buffer (standard buffer with 4 μg/ml leupeptin and 2 μg/ml chymostatin). […] The brain homogenates were used on the day of preparation.
Binding assays for the μ receptor were performed at 4° C. for 90 minutes, as described in Zadina et al., Life Sci, 55: 461-466 (1994). […] After incubation the samples were filtered on a Brandell-Harvester using an appropriate GF/B filter soaked in 50 mM Tris HCl (pH 7.4) and 0.5% PEI. Scintillation fluid was added to the filters in order to solubilize the membranes, and a beta-counter was used to quantify radioactivity.

Sprague Dawley rats [2] = experiment: Tail flick test after intracerebroventricular administration; assay type: in vivo, rat; conditions: 1.0 μg intracerebroventricular; data not shown
Protocol: as §1
Adult male Sprague Dawley rats weighing 200-250 g were used. Before surgery, the rats were anesthesized with 0.2-0.3 mL of xylazine (10%) and ketamine (90%). Rats were positioned in a stereotaxic apparatus and the bregma was located. To reach the lateral ventricle, a hole was drilled 0.8 mm caudal and 1.4-1.5 mm left or right of the bregma. The catheter was inserted 4.5 mm deep into the brain and 4.0 cm of polyethylene tubing was connected to the end to the catheter. Screws and dental cement were used to secure the catheter in place. After suturing the skin, the rats were allowed to recover from surgery for 4-5 days. Each rat was housed separately in a 12 hr light-dark cycle with free access to food and water. Rats with any neurological problems were not used in the analgesic testing.
The tail flick assay was used to measure analgesia as described above in Example 2.1. Briefly, the rats were first habituated to the tail flick chamber. […] The latency to remove the tail was recorded. […] Responses were expressed as % maximum possible effect (MPE): [formula]

NK1 receptor = target: T2, NK1 receptor (Rattus norvegicus, UniProt P14600); experiment: SP (NK1) receptor binding assay, [125I]BH-SP competition, crude rat brain plasma membranes
T2 construct: The same procedure was followed for the SP receptor except the wash with NaCl was eliminated; from tissue; host or cells: rat brain (crude plasma membranes)
T2 sequence (P14600 whole entry): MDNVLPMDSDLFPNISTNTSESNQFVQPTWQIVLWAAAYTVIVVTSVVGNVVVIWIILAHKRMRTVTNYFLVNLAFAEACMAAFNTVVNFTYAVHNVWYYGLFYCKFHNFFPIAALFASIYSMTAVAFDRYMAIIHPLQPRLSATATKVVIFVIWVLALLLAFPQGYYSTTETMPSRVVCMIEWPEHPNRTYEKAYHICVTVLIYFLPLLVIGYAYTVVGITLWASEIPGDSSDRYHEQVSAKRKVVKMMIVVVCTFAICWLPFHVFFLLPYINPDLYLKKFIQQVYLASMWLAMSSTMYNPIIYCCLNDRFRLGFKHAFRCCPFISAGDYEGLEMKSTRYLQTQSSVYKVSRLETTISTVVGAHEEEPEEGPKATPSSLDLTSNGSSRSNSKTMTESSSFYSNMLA

T1 sequence (P33535 whole entry): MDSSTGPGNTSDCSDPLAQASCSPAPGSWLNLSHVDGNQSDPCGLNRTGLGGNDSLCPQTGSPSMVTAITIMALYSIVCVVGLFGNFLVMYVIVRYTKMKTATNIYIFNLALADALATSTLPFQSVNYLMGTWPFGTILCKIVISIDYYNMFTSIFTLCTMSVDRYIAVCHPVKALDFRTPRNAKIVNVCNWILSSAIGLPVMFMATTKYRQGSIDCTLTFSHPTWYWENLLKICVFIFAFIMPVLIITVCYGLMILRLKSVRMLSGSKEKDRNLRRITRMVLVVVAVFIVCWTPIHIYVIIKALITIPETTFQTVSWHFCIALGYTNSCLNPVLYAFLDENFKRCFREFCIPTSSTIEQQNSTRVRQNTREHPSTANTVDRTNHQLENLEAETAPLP

Compound | change in analgesia, antagonist alone (Sprague Dawley rats [1]) | hyperalgesia when naltrexone is given with ESP7+2CD (Sprague Dawley rats [1]; naltrexone with 0.2 μg and 1.0 μg ESP7+2CD intrathecal) | analgesia (tail flick, % MPE) (rats) | pKd (μ receptor) | analgesia (tail flick, % MPE) (Sprague Dawley rats [2]) | pKd (NK1 receptor)
COc1ccccc1CC(=N)N1C[C@@H]2C(=O)CCC(c3ccccc3)(c3ccccc3)[C@@H]2C1 [RP67580] | no effect on the level of analgesia | – | – | – | – | –
O=C1CC[C@@]2(O)[C@H]3Cc4ccc(O)c5c4[C@@]2(CCN3CC2CC2)[C@H]1O5 [naltrexone] | produced no change in analgesia | produced some hyperalgesia | – | – | – | –
H-YPFFGLM-NH2 [ESP7, Tyr-Pro-Phe-Phe-Gly-Leu-Met-NH2] | – | – | produced analgesia as seen with intrathecal administration | ~6.52 | produced analgesia | ~6.70
